Assay results: patent US20080221074A1, “Drug Screen and Treatment Method” (priority 2006, published 2008)

Assays:
[1] = system: monocyte chemoattractant protein-1 (MCP-1); assay: MCP-1 RNA in perigonadal fat tissue by quantitative RT/PCR; assay type: in vivo, db/db mice; conditions: 20 mg/kg; normalized to vehicle control
Protocol: In another study, total RNA from perigonadal fat tissue from lean db/+ or diabetic db/db mice treated with 20 mg/kg of 17α-ethynylandrost-5-ene-3β,7β,17β-triol was isolated and processed for quantitative RT/PCR using primers specific for monocyte chemoattractant protein-1 (MCP-1) using an icycler iQ multicolor real time-detection system (Bio-Rad). RNA expression levels were normalized with respect to the vehicle control. […] For this study, vehicle was also administered to a control group of age matched lean heterozygous db/+ mice (n=7).

estrogen receptor-α = estrogen receptor-α (Homo sapiens, UniProt P03372); assay: interaction with sex hormone receptor; assay type: binding
[2] = system: human T lymphocytes (PBMC); assay: human mixed lymphocyte reaction (MLR); assay type: cell-based; conditions: 300 nM or 30 nM
osteoprotegerin = osteoprotegerin levels in dexamethasone treated mice; assay type: in vivo; conditions: vehicle, dexamethasone and compound at 4 mg/kg/day; p<0.05
Protocol: Osteoprotegerin levels in mice that were treated with vehicle and dexamethasone at 10 μg/day (positive control group) had 3.3 pMol/L osteoprotegerin, while animals treated with vehicle, dexamethasone and 17α-ethynyl-5-androstene-3β,7β,17β-triol at 4 mg/kg/day had 6.4 pMol/L osteoprotegerin (p<0.05).

NF-κB = assay: kinetic analysis of NF-kB inhibition in vivo after LPS; design: species or system mice
Protocol: Kinetic analysis of NF-kB inhibition in vivo. […] The drug was injected 24 hours before intraperitoneal injection of bacterial LPS (about an LD50/24). The study used two groups of 12 animals, vehicle control or drug administered 24 hours before LPS challenge. Spleens were harvested from 3 animals from both groups just before LPS challenge and at 1.5, 2.0 and 2.5 hours after administration of LPS.
Maximum NF-κB activation after LPS administration occurred at 1.5 hours in the vehicle controls, which was 4-fold increased over the pre-LPS level of activated NF-κB. The values for the vehicle control and drug treated animals are relative optical density units from ELISA measurement of NF-κB in nuclei from spleen cells.

Sequence of estrogen receptor-α (P03372 whole entry): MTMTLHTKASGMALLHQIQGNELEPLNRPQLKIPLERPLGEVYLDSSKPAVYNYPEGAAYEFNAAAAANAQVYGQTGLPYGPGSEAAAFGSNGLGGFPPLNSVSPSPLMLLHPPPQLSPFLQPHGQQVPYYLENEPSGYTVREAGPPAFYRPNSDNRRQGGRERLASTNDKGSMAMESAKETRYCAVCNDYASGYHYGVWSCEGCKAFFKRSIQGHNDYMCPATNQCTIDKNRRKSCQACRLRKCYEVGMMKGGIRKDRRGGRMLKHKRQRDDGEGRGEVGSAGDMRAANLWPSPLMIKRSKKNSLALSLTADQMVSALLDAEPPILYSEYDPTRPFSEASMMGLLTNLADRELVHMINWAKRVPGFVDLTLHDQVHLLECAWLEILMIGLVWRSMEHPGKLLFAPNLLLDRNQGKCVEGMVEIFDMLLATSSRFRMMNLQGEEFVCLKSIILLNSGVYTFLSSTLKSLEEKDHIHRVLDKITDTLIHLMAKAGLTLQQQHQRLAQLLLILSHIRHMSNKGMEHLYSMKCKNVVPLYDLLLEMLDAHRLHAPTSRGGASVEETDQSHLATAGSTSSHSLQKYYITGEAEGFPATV

SMILES: C#C[C@]1(O)CC[C@H]2[C@@H]3[C@@H](O)C=C4C[C@@H](O)CC[C@]4(C)[C@H]3CC[C@@]21C [17α-ethynylandrost-5-ene-3β,7β,17β-triol]
- decrease of MCP-1 levels [1]: about 50%
- interaction with estrogen receptor-α (estrogen receptor-α): do not interact
- immune suppression (inhibition of the MLR) [2]: not appreciably immune suppressive
- osteoprotegerin (osteoprotegerin): 6.4 pmol/L
- activated NF-κB in spleen cell nuclei (ELISA) (NF-κB; 0 hours (before LPS), about 40 mg/kg i.p. 24 h before LPS): 22 relative optical density units
- activated NF-κB in spleen cell nuclei (ELISA) (NF-κB; 1.5 hours after LPS): 2 relative optical density units
- activated NF-κB in spleen cell nuclei (ELISA) (NF-κB; 2.0 hours after LPS): 7 relative optical density units
- activated NF-κB in spleen cell nuclei (ELISA) (NF-κB; 2.5 hours after LPS): 9 relative optical density units
